Measurements: ChEMBL document CHEMBL3272098, “Reactions of 2-acyloxyisobutyryl halides with nucleosides. 7. Synthesis and biological evaluation of some 2,2'-anhydro-1(3',5'-di-O-acyl-beta-D-arabinofuranosyl)cytosine hydrochlorides” (J Med Chem, 1976)
pEC50: −log10 of the molar value. The source made the active and inactive calls. The rule behind the calls is not given here.

Legend:
[1] = tested on: unidentified influenza virus; experiment: Antiviral activity against Influenza virus Ao/WNS infected in monkey LLC-MK2 cells after 5 days by pulp disk diffusion assay; type: functional, organism-based
L1210 [2] = experiment: Antitumor activity against mouse L1210 cells allografted in BDF1 mouse assessed as survival at 50 mg/kg, ip administered 24 hrs post-implantation after 30 days; type: functional, organism-based; set-up: dose 50 mg/kg
Herpesviridae sp. = experiment: Antiviral activity against Herpes simplex virus HF infected in African green monkey BGM cells after 6 days by plaque reduction assay; type: functional; settings: 144 h, read-out: ED50 (the source's name)
Mus musculus [3] = experiment: Toxicity in BDF1 mouse allografted with mouse L1210 cells at 50 mg/kg, ip administered 24 hrs post-implantation measured up to 30 days; type: organism-based; set-up: dose 50 mg/kg, route intraperitoneal; settings: in vivo
L1210 [4] = experiment: Antitumor activity against mouse L1210 cells allografted in po dosed BDF1 mouse administered 24 hrs post-implantation; type: functional, organism-based
Vaccinia virus = experiment: Antiviral activity against Vaccinia virus IHD infected in African green monkey BGM cells after 6 days by plaque reduction assay; type: functional; settings: Orthopoxvirus vaccinia, 144 h, read-out: ED50 (the source's name)
Mus musculus [5] = experiment: Toxicity in BDF1 mouse allografted with mouse L1210 cells assessed as reduction in average life span at 200 mg/kg, ip administered 24 hrs post-implantation measured up to 30 days relative to control; type: organism-based; set-up: dose 200 mg/kg, route intraperitoneal; scale not given: the % may be the effect or the level left; settings: in vivo
BGM = experiment: Antiviral activity against Poliovirus type 1 Mahoney infected in African green monkey BGM cells after 5 days by pulp disk diffusion assay; type: functional, cell-based; settings: Human poliovirus 1 Mahoney
Mus musculus [6] = experiment: Toxicity in BDF1 mouse allografted with mouse L1210 cells assessed as survival at 200 mg/kg, ip administered 24 hrs post-implantation after 30 days; type: organism-based; set-up: dose 200 mg/kg, route intraperitoneal; settings: in vivo, 720 h
HeLa = experiment: Cytotoxicity against human HeLa cells after 48 hrs by Coulter counting analysis; type: functional; settings: read-out: ED50 (the source's name)
L1210 [7] = experiment: Antitumor activity against mouse L1210 cells allografted in BDF1 mouse assessed as increase in life span at 50 mg/kg, ip administered 24 hrs post-implantation measured up to 30 days relative to control; type: functional; settings: route intraperitoneal
Measles morbillivirus = experiment: Antiviral activity against Measles virus infected in African green monkey BGM cells after 5 days by pulp disk diffusion assay; type: functional, organism-based
Mus musculus [8] = experiment: Toxicity in BDF1 mouse allografted with mouse L1210 cells assessed as survival at 500 mg/kg, ip administered 24 hrs post-implantation after 30 days; type: organism-based; set-up: dose 500 mg/kg, route intraperitoneal; settings: in vivo, 720 h
Mus musculus [9] = experiment: Toxicity in BDF1 mouse allografted with mouse L1210 cells assessed as survival at 1000 mg/kg, ip administered 24 hrs post-implantation after 30 days; type: organism-based; set-up: dose 1000 mg/kg, route intraperitoneal; settings: in vivo, 720 h
L1210 [10] = experiment: Antitumor activity against mouse L1210 cells allografted in BDF1 mouse assessed as increase in life span at 200 mg/kg, ip administered 24 hrs post-implantation measured up to 30 days relative to control; type: functional; settings: route intraperitoneal
Mus musculus [11] = experiment: Toxicity in BDF1 mouse allografted with mouse L1210 cells assessed as reduction in average life span at 500 mg/kg, ip administered 24 hrs post-implantation measured up to 30 days relative to control; type: organism-based; set-up: dose 500 mg/kg, route intraperitoneal; scale not given: the % may be the effect or the level left; settings: in vivo
Mus musculus [12] = experiment: Toxicity in BDF1 mouse allografted with mouse L1210 cells assessed as reduction in average life span at 1000 mg/kg, ip administered 24 hrs post-implantation measured up to 30 days relative to control; type: organism-based; set-up: dose 1000 mg/kg, route intraperitoneal; scale not given: the % may be the effect or the level left; settings: in vivo
L1210 [13] = experiment: Antitumor activity against mouse L1210 cells allografted in BDF1 mouse assessed as survival at 200 mg/kg, ip administered 24 hrs post-implantation after 30 days; type: functional, organism-based; set-up: dose 200 mg/kg
L1210 [14] = experiment: Antitumor activity against mouse L1210 cells allografted in BDF1 mouse assessed as survival at 500 mg/kg, ip administered 24 hrs post-implantation after 30 days; type: functional, organism-based; set-up: dose 500 mg/kg
L1210 [15] = experiment: Antitumor activity against mouse L1210 cells allografted in BDF1 mouse assessed as increase in life span at 500 mg/kg, ip administered 24 hrs post-implantation measured up to 30 days relative to control; type: functional; settings: route intraperitoneal
L1210 [16] = experiment: Antitumor activity against mouse L1210 cells allografted in BDF1 mouse assessed as increase in life span at 1000 mg/kg, ip administered 24 hrs post-implantation measured up to 30 days relative to control; type: functional; settings: route intraperitoneal
Mus musculus [17] = experiment: Toxicity in BDF1 mouse allografted with mouse L1210 cells at 50 to 1000 mg/kg, ip administered 24 hrs post-implantation measured up to 30 days; type: organism-based; set-up: dose 50-1000 mg/kg, route intraperitoneal; settings: in vivo
L1210 [18] = experiment: Antitumor activity against mouse L1210 cells allografted in BDF1 mouse assessed as survival at 1000 mg/kg, ip administered 24 hrs post-implantation after 30 days; type: functional, organism-based; set-up: dose 1000 mg/kg

SMILES | Activity [1] | Activity (L1210 [2]) | pEC50 (Herpesviridae sp.) | Activity (Mus musculus [3]) | Activity (L1210 [4]) | pEC50 (Vaccinia virus) | Activity (Mus musculus [5]) [%] | Activity (BGM) | Activity (Mus musculus [6]) | EC50 (HeLa) [µg/mL] | ILS at 50 mg/kg (L1210 [7]) [%] | Activity (Measles morbillivirus) | Activity (Mus musculus [8]) | Activity (Mus musculus [9]) | ILS at 200 mg/kg (L1210 [10]) [%] | Activity (Mus musculus [11]) [%] | Activity (Mus musculus [12]) [%] | further results
C/C=C/C=C/C(=O)OC[C@H]1O[C@@H]2[C@@H](Oc3nc(=N)ccn32)[C@@H]1OC(=O)/C=C/C=C/C.Cl | inactive | inactive | < 5.00 | Non-toxic | inactive | 5.24 | 100 | inactive | Toxic | 0.1 | 1 | inactive |  |  |  |  |  | 
C=CCCCCCCCCC(=O)OC[C@H]1O[C@@H]2[C@@H](Oc3nc(=N)ccn32)[C@@H]1OC(=O)CCCCCCCCC=C.Cl | inactive | inactive | 6.11 | Non-toxic | inactive | 6.36 | 74 | inactive | Toxic | 0.1 | 24 | inactive |  |  |  |  |  | 
CCCCCCCCCCCC(=O)OC[C@H]1O[C@@H]2[C@@H](Oc3nc(=N)ccn32)[C@@H]1OC(=O)CCCCCCCCCCC.Cl | inactive |  | 5.46 |  | inactive | 6.15 |  | inactive |  | 0.48 | > 195 | inactive | Toxic | Toxic | > 310 | 23 | 18 | Activity (L1210 [13]): Active
CCCCCCCC/C=C\CCCCCCCCCCCC(=O)OC[C@H]1O[C@@H]2[C@@H](Oc3nc(=N)ccn32)[C@@H]1OC(=O)CCCCCCCCCCC/C=C\CCCCCCCC.Cl | inactive |  | < 4.52 |  | inactive | < 4.52 |  | inactive |  | 4 | > 202 | inactive |  |  | > 267 |  |  | Activity (L1210 [14]): Active; ILS at 500 mg/kg (L1210 [15]): > 257%; ILS at 1000 mg/kg (L1210 [16]): > 257%; Activity (Mus musculus [17]): Non-toxic; Activity (L1210 [18]): Active
CCCCCC(=O)OC[C@H]1O[C@@H]2[C@@H](Oc3nc(=N)ccn32)[C@@H]1OC(=O)CCCCC.Cl | inactive | inactive | 6.00 |  | inactive | 6.57 | 61 | inactive | Toxic | 0.11 | 26 | inactive | Toxic | Toxic |  | 86 | 100 | 
